# Residues, ends and D or L forms follow the SMILES beside them.
# T1: human NMUR1 receptor (Homo sapiens, UniProt Q9HB89)
# T1 construct: expressed in transfected cells; host or cells: CHO-K1
# T1 sequence (Q9HB89 1-426): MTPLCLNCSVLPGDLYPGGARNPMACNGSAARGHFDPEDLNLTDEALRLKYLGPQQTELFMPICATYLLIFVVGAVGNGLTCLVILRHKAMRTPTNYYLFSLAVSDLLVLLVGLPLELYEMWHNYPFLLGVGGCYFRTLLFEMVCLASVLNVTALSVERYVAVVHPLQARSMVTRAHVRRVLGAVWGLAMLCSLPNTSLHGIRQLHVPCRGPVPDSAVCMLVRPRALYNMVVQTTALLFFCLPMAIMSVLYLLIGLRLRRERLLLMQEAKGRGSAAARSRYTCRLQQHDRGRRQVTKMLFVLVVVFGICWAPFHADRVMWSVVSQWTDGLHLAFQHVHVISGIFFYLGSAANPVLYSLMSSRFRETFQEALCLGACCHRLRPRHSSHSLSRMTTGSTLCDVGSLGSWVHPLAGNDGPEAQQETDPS
# T2: human neuromedin U receptor 1 (human, UniProt Q9HB89 24-426)
# T2 sequence (looked up): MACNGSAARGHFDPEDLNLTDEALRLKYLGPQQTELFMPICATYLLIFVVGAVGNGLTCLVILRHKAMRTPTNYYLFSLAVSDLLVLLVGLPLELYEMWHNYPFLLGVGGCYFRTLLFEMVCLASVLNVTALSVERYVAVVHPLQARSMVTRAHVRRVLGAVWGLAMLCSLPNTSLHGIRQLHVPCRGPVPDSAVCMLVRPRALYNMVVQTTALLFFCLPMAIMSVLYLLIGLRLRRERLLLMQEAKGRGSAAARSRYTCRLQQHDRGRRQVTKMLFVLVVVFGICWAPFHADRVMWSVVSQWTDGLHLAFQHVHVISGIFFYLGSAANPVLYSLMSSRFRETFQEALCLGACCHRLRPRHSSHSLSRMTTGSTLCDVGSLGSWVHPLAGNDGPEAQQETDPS
# Key:
# human NMUR1 receptor = target: T1, human NMUR1 receptor; experiment: IP1 Gq HTRF assay, activation of human NMUR1 in buffer; format: cell-based; details: CHO-K1 cells expressing human NMUR1, stimulation buffer with 0.1% BSA; read-out: EC50 (hNMUR1) buffer
# Summary of the method: (§1)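 CHO-K1 cells stably expressing human NMUR1 or NMUR2, seeded 24 h before assay, stimulated with peptide agonists (8-point dose-response, 1% DMSO final) in HEPES/HBSS buffer with 50 mM LiCl and 0.1% BSA, pH 7.4, 1 h at 37 °C. IP1 accumulation read by HTRF competition (665/620 nm); EC50 from 4-parameter sigmoidal fit.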
# human NMUR2 receptor [1] = target: T3, human NMUR2 receptor (Homo sapiens, UniProt Q9GZQ4); experiment: IP1 Gq HTRF assay, activation of human NMUR2 in human plasma; format: cell-based; set-up: expressed in transfected cells; host or cells: CHO-K1; details: CHO-K1 cells expressing human NMUR2, 100% human plasma; read-out: EC50 (hNMUR2) human plasma
# Summary of the method: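 CHO-K1 cells stably expressing human NMUR2 exposed to peptide agonists (8-point dose-response) in 100% human plasma with 50 mM LiCl, 1% DMSO, for 1 h at 37° C. IP1 accumulation read by HTRF competition (665/620 nm ratio). EC50 from 4-parameter sigmoidal fit.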
# human NMUR2 receptor [2] = target: T3, human NMUR2 receptor; experiment: IP1 Gq HTRF assay, activation of human NMUR2 in buffer; format: cell-based; set-up: expressed in transfected cells; host or cells: CHO-K1; details: CHO-K1 cells expressing human NMUR2, stimulation buffer with 0.1% BSA; read-out: EC50 (hNMUR2) buffer
# Summary of the method: as §1
# [3] = target: T2, human neuromedin U receptor 1; experiment: cell-based or functional assay
# T3 sequence (Q9GZQ4 whole entry): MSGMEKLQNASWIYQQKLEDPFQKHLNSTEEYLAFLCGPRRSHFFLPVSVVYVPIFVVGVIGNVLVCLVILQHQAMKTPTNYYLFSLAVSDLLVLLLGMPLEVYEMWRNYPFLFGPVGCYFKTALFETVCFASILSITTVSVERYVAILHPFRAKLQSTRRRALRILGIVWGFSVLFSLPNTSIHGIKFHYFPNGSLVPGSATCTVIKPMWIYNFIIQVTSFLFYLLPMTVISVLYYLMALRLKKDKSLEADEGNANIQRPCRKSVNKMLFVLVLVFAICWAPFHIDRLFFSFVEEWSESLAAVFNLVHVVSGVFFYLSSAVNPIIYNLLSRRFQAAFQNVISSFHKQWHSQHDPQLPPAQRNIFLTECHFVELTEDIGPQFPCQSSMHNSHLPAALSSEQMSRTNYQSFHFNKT
molecule,measurement,setting,value
"CCCC[C@H](NC(=O)[C@H](CC(C)C)N(C)C(=O)[C@H](Cc1ccccc1)NC(=O)[C@H](Cc1ccc(O)cc1)NC(=O)CN1CCN(CCNC(=O)CN(C)C(=O)CN(C)C(=O)CN(C)C(=O)CN(C)C(=O)CN(C)C(=O)CN(C)C(=O)CN(C)C(=O)CN(C)C(=O)CN(C)C(=O)CN(C)C(=O)CN(C)C(=O)CN(C)C(=O)CN(C)C(=O)CN(C)C(=O)CN(C)C(=O)CC[C@H](NC(=O)CC[C@H](NC(=O)CC[C@H](NC(=O)CCCCCCCCCCCCCCCCC(=O)O)C(=O)O)C(=O)O)C(=O)O)CC1)C(=O)N[C@@H](Cc1c[nH]cn1)C(=O)N1CCC[C@H]1C(=O)N[C@@H](CCCNC(=N)N)C(=O)NCC(N)=O [Compound 51, C18DA-gGlu3-Sar15-AEPipAc-Tyr-Phe-NMeLeu-Nle-His-Pro-Arg-Gly-NH2] (HELM PEPTIDE1{[O=C(O)CCCCCCCCCCCCCCCCC(=O)[*:2]].[gGlu].[gGlu].[gGlu].[Sar].[Sar].[Sar].[Sar].[Sar].[Sar].[Sar].[Sar].[Sar].[Sar].[Sar].[Sar].[Sar].[Sar].[Sar].[O=C(CN1CCN(CCN[*:1])CC1)[*:2]].Y.F.[meL].[Nle].H.P.R.G.[am]}$$$$V2.0)",EC50,human NMUR1 receptor,> 1000 nM
same,EC50,human NMUR2 receptor [1],112 nM
same,EC50,human NMUR2 receptor [2],19 nM
"CCCC[C@H](NC(=O)[C@H](CC(C)C)N(C)C(=O)[C@H](Cc1ccccc1)NC(=O)[C@H](Cc1ccc(O)cc1)NC(=O)CN1CCN(CCNC(=O)CN(C)C(=O)CN(C)C(=O)CN(C)C(=O)CN(C)C(=O)CN(C)C(=O)CN(C)C(=O)CN(C)C(=O)CN(C)C(=O)CN(C)C(=O)CN(C)C(=O)CN(C)C(=O)CN(C)C(=O)CN(C)C(=O)CN(C)C(=O)CN(C)C(=O)CC[C@H](NC(=O)CC[C@H](NC(=O)CC[C@H](NC(=O)CCCCCCCCCCCCCCCCCCC(=O)O)C(=O)O)C(=O)O)C(=O)O)CC1)C(=O)N(C)[C@@H](CCCNC(=N)N)C(=O)N(C)[C@@H](C)C(=O)N[C@@H](CCCNC(=N)N)C(=O)NCC(N)=O [Compound 36, C20DA-gGlu3-Sar15-AEPipAc-Tyr-Phe-NMeLeu-Nle-NMeArg-NMeAla-Arg-Gly-NH2] (HELM PEPTIDE1{[O=C(O)CCCCCCCCCCCCCCCCCCC(=O)[*:2]].[gGlu].[gGlu].[gGlu].[Sar].[Sar].[Sar].[Sar].[Sar].[Sar].[Sar].[Sar].[Sar].[Sar].[Sar].[Sar].[Sar].[Sar].[Sar].[O=C(CN1CCN(CCN[*:1])CC1)[*:2]].Y.F.[meL].[Nle].[meR].[meA].R.G.[am]}$$$$V2.0)",EC50,human NMUR1 receptor,1400 nM
same,EC50,human NMUR2 receptor [1],18.3 nM
same,EC50,human NMUR2 receptor [2],4.7 nM
EEEEXXXXXXXXXXXXXXXXYFLXXPRG (HELM PEPTIDE1{[O=C(O)CCCCCCCCCCCCCCCCCCC(=O)[*:2]].[gGlu].[gGlu].[gGlu].[gGlu].[Sar].[Sar].[Sar].[Sar].[Sar].[Sar].[Sar].[Sar].[Sar].[Sar].[Sar].[Sar].[Sar].[Sar].[Sar].[O=C(CN1CCN(CCN[*:1])CC1)[*:2]].Y.F.[meL].[Nle].[Dab].P.R.G.[am]}$$$$V2.0; SMILES CCCC[C@H](NC(=O)[C@H](CC(C)C)N(C)C(=O)[C@H](Cc1ccccc1)NC(=O)[C@H](Cc1ccc(O)cc1)NC(=O)CN1CCN(CCNC(=O)CN(C)C(=O)CN(C)C(=O)CN(C)C(=O)CN(C)C(=O)CN(C)C(=O)CN(C)C(=O)CN(C)C(=O)CN(C)C(=O)CN(C)C(=O)CN(C)C(=O)CN(C)C(=O)CN(C)C(=O)CN(C)C(=O)CN(C)C(=O)CN(C)C(=O)CC[C@H](NC(=O)CC[C@H](NC(=O)CC[C@H](NC(=O)CC[C@H](NC(=O)CCCCCCCCCCCCCCCCCCC(=O)O)C(=O)O)C(=O)O)C(=O)O)C(=O)O)CC1)C(=O)N[C@@H](CCN)C(=O)N1CCC[C@H]1C(=O)N[C@@H](CCCNC(=N)N)C(=O)NCC(N)=O) [C20DA-gGlu4-Sar15-AEPipAc-Tyr-Phe-NMeLeu-Nle-Dbu-Pro-Arg-Gly-NH2],EC50 (hNMUR1) buffer,[3],770 nM
EEEXXXXXXXXXXXXXXXXYFLXXARG (HELM PEPTIDE1{[O=C(O)CCCCCCCCCCCCCCCCCCC(=O)[*:2]].[gGlu].[gGlu].[gGlu].[Sar].[Sar].[Sar].[Sar].[Sar].[Sar].[Sar].[Sar].[Sar].[Sar].[Sar].[Sar].[Sar].[Sar].[Sar].[O=C(CN1CCN(CCN[*:1])CC1)[*:2]].Y.F.[meL].[Nle].[Orn].[meA].R.G.[am]}$$$$V2.0; SMILES CCCC[C@H](NC(=O)[C@H](CC(C)C)N(C)C(=O)[C@H](Cc1ccccc1)NC(=O)[C@H](Cc1ccc(O)cc1)NC(=O)CN1CCN(CCNC(=O)CN(C)C(=O)CN(C)C(=O)CN(C)C(=O)CN(C)C(=O)CN(C)C(=O)CN(C)C(=O)CN(C)C(=O)CN(C)C(=O)CN(C)C(=O)CN(C)C(=O)CN(C)C(=O)CN(C)C(=O)CN(C)C(=O)CN(C)C(=O)CN(C)C(=O)CC[C@H](NC(=O)CC[C@H](NC(=O)CC[C@H](NC(=O)CCCCCCCCCCCCCCCCCCC(=O)O)C(=O)O)C(=O)O)C(=O)O)CC1)C(=O)N[C@@H](CCCN)C(=O)N(C)[C@@H](C)C(=O)N[C@@H](CCCNC(=N)N)C(=O)NCC(N)=O) [C20DA-gGlu3-Sar15-AEPipAc-Tyr-Phe-NMeLeu-Nle-Orn-NMeAla-Arg-Gly-NH2],EC50 (hNMUR1) buffer,[3],> 1000 nM
EEEXXXXXXXXXXXXXYFLXRPRG (HELM PEPTIDE1{[O=C(O)CCCCCCCCCCCCCCCCC(=O)[*:2]].[gGlu].[gGlu].[gGlu].[Sar].[Sar].[Sar].[Sar].[Sar].[Sar].[Sar].[Sar].[Sar].[Sar].[Sar].[Sar].[O=C(CN1CCN(CCN[*:1])CC1)[*:2]].Y.F.[meL].[Nle].[meR].P.R.G.[am]}$$$$V2.0; SMILES CCCC[C@H](NC(=O)[C@H](CC(C)C)N(C)C(=O)[C@H](Cc1ccccc1)NC(=O)[C@H](Cc1ccc(O)cc1)NC(=O)CN1CCN(CCNC(=O)CN(C)C(=O)CN(C)C(=O)CN(C)C(=O)CN(C)C(=O)CN(C)C(=O)CN(C)C(=O)CN(C)C(=O)CN(C)C(=O)CN(C)C(=O)CN(C)C(=O)CN(C)C(=O)CN(C)C(=O)CC[C@H](NC(=O)CC[C@H](NC(=O)CC[C@H](NC(=O)CCCCCCCCCCCCCCCCC(=O)O)C(=O)O)C(=O)O)C(=O)O)CC1)C(=O)N(C)[C@@H](CCCNC(=N)N)C(=O)N1CCC[C@H]1C(=O)N[C@@H](CCCNC(=N)N)C(=O)NCC(N)=O) [C18DA-gGlu3-Sar12-AEPipAc-Tyr-Phe-NMeLeu-Nle-NMeArg-Pro-Arg-Gly-NH2],EC50 (hNMUR1) buffer,[3],190 nM
EEEXXXXXXXXXXXXXXXXYFLXRARG (HELM PEPTIDE1{[O=C(O)CCCCCCCCCCCCCCCCCCC(=O)[*:2]].[gGlu].[gGlu].[gGlu].[Sar].[Sar].[Sar].[Sar].[Sar].[Sar].[Sar].[Sar].[Sar].[Sar].[Sar].[Sar].[Sar].[Sar].[Sar].[O=C(CN1CCN(CCN[*:1])CC1)[*:2]].Y.F.[meL].[Nle].[meR].[meA].R.G.[am]}$$$$V2.0; SMILES CCCC[C@H](NC(=O)[C@H](CC(C)C)N(C)C(=O)[C@H](Cc1ccccc1)NC(=O)[C@H](Cc1ccc(O)cc1)NC(=O)CN1CCN(CCNC(=O)CN(C)C(=O)CN(C)C(=O)CN(C)C(=O)CN(C)C(=O)CN(C)C(=O)CN(C)C(=O)CN(C)C(=O)CN(C)C(=O)CN(C)C(=O)CN(C)C(=O)CN(C)C(=O)CN(C)C(=O)CN(C)C(=O)CN(C)C(=O)CN(C)C(=O)CC[C@H](NC(=O)CC[C@H](NC(=O)CC[C@H](NC(=O)CCCCCCCCCCCCCCCCCCC(=O)O)C(=O)O)C(=O)O)C(=O)O)CC1)C(=O)N(C)[C@@H](CCCNC(=N)N)C(=O)N(C)[C@@H](C)C(=O)N[C@@H](CCCNC(=N)N)C(=O)NCC(N)=O) [C20DA-gGlu3-Sar15-AEPipAc-Tyr-Phe-NMeLeu-Nle-NMeArg-NMeAla-Arg-Gly-NH2],EC50 (hNMUR1) buffer,[3],1400 nM
